Measured values reported in paper PMC9321043, “Synthesis, Structure–Activity Relationships, and Parasitological Profiling of Brussonol Derivatives as New Plasmodium falciparum Inhibitors” (Pharmaceuticals, 2022).

What was measured:
[1] = test system: cytosolic Ca^2+ in P. falciparum; assay: [Ca2+]cyt measurements in isolated parasites loaded with Fluo-4AM; format: cell-based, Plasmodium falciparum
Experimental: One of the compounds identified in the structural similarity search was the cyclopiazonic acid (CPA) (Figure 8a). […] Because of that, brussonol activity on the modulation of the SERCA pump was investigated. To assess the effect of brussonol on calcium mobilization in P. falciparum intraerythrocytic stages, isolated parasites loaded with Fluo-4-AM were exposed to 10 μM brussonol in MOPS Ca^2+ buffer. […] To verify if the brussonol-elicited [Ca^2+]cyt increment originated from the endoplasmic reticulum (ER), targeting the PfSERCA pump, CPA was added before the addition of brussonol. […] In the brussonol-pretreated parasites, the addition of CPA still increased the cytosolic Ca^2 + level (30 ± 5 nM) (Figure 8d).
Isolated parasites were incubated for 1 h at 37 °C with 5 μM of Fluo-4AM in 1 mL MOPS buffer (116 mM NaCl, 5.4 mM KCl, 0.8 mM MgSO4, 5.5 mM D-glucose, 50 mM MOPS, and 2 mM CaCl2, pH 7.2), with 1 mM probenecid to minimize compartmentalization and extrusion of probe. The parasites were washed three times with the same buffer and transferred to a quartz cuvette. Intracellular calcium was measured continuously using a Hitachi F-7000 spectrofluorimeter (Tokyo, Japan) by measurement of the fluorescence (λex = 488 nm and λem = 530 nm) at 37 °C, under agitation. When indicated, 10 µM of cyclopiazonic acid (CPA) or 10 µM of brussonol were added to the cuvette. Maximal fluorescence (Fmax) was determined after the lysis of with digitonin 0.15% (m/v), and minimal fluorescence (Fmin) was determined by adding 25 mM EGTA in 3 M Tris, pH 8.8, until no further decrease in fluorescence was observed. The cytosolic calcium concentration ([Ca^2+]cyt) was calculated from the fluorescence data (F) using a Kd value of 345 nM using the formula:Ca^2 +cyt = 345 × [(F − Fmin)/(Fmax − F)]
The results (n = 2) were analyzed through One-Way ANOVA with Tukey post-test. All compounds described here were purchased from Sigma-Aldrich (verificar local).

P. falciparum K1 strain = assay: Resistance assessment, K1 strain; format: cell-based; settings: Plasmodium falciparum
HepG2 cells = assay: Cytotoxic test on immortalized cells, MTT; format: cell-based, human; settings: Homo sapiens, HepG2, 72 h
Experimental: The cytotoxic effects of brussonol and derivatives were evaluated against the human hepatocellular carcinoma cell line (HepG2). The cells were cultivated in an RPMI medium supplemented with 10% (v/v) fetal bovine serum and 25 µg/mL gentamicin. Conditions for the cultivation of these cells were 37 °C and 5% CO2, and every 2 days the supplemented medium was changed.
For experimental procedures, the cells were trypsinized and transferred to a 96-well plate at 30,000 cells per well (180 µL). The plate was incubated at 37 °C and 5% CO2 to allow cell adhesion. Next, 20 µL of serial dilutions of the compounds tested were added to the plate, with a range of concentrations tested from 400–6.25 µM. Cells without any compounds were used as a positive control for growing and the wells containing only medium were used as negative controls. The plate was incubated for 72 h at 37 °C and 5% CO2. After incubation, a microscope was used to determine the highest compound concentration to be used in the experiments (highest concentration without precipitation). A colorimetric assay was used to evaluate cytotoxicity. This assay is based on the metabolic cell activity in the presence of 3-(4,5-dimethylthiazol-2-yl)-2,5-diphenyltetrazolium bromide (MTT). Shortly after incubation, 20 µL of a solution of MTT at 5 mg/mL (solubilized in phosphate buffer) is added to each well. The plate is incubated for 3 to 4 h at 37 °C to allow MTT cleavage in living cells. Then, the supernatant is removed, and 100 µL of dimethylsulfoxide (DMSO) is added to solubilize the purple formazan crystals. The absorbance, which is proportional to the number of viable cells, was determined using a SpectraMAX Plus 384 plate reader (Molecular Devices Corp., Sunnyvale, CA) (λ = 570 nm). All compounds described here were purchased from Sigma-Aldrich (verificar local).
After the IC50 against the parasite and the human cell line is determined, it is possible to calculate the SI. It is calculated as the formula below:SI = IC50^HepG2/IC50^Pf.
For our reference, compounds with SI values higher than 10 are considered well tolerated by the cellular model used, and they are considered for further evaluation.

**Q.** Which “[Ca^2+]cyt rise after CPA pretreatment” value ([1]; 10 µM brussonol added after 10 µM CPA reached a plateau) does the source give for `CC(C)c1cc2c(c(O)c1O)C[C@@]13CCCC(C)(C)[C@@H]1C[C@@H]2O3` [Compound 1, brussonol] here?
**A.** The value was 19 ± 8 nM.

**Q.** And the “[Ca^2+]cyt rise” value ([1]; 10 µM compound alone, MOPS Ca^2+ buffer, relative to basal level)?
**A.** The value was 19 ± 4 nM.

**Q.** What about the IC50 (P. falciparum K1 strain) of the same molecule?
**A.** Its IC50 is 6.6 ± 0.1 µM.

**Q.** What about the IC50 (HepG2 cells) of the same molecule?
**A.** Its IC50 is 67 ± 4 µM.
